Measurements taken from patent US20250241891A1, “TREATMENT OF ANXIETY” (GH RESEARCH IRELAND LIMITED, priority 2022, published 2025).

Tested on: patients with postpartum depression (PPD)
Experiment: Clinical trial of inhaled 5-MeO-DMT in postpartum depression (MADRS, BPRS, BIMF, PES, safety)
Method: The single-arm, open-label clinical trial will involve 15 adult female patients with clinically diagnosed postpartum depression (PPD).
The second dose (12 mg) will only be administered if: • a. […] The 6 mg dose was safe and well-tolerated according to the investigator, • c. Any psychoactive effects (PsE) of the prior dose have subsided, and • d. Pre-dose vital parameters and forced expiratory volume in one second (FEV1) are in normal range, or if outside of the normal range, are not clinically significant according to the investigator. • 3. Similarly, a third dose (18 mg) will only be administered if: • a. […] The 12 mg dose was safe and well-tolerated according to the investigator, and • c. Any PsE of the prior dose have subsided, and • d. Pre-dose vital parameters and forced expiratory volume in one second (FEV1) are in normal range, or if outside of the normal range, are not clinically significant according to the investigator.
The patients will be assessed for a peak psychedelic experience (based on a patient-scored visual analogue scale, the PE scale), sedation, and other endpoints after dosing. Follow-up visits are planned for Day 1, and Day 7 after the dosing day.
The following criteria must be met by all patients considered for clinical trial participation: • 1. Is female and in the age range between 18 and 45 years (inclusive) at screening. • 2. Has a body mass index (BMI) in the range of 18.5 and 35 kg/m^2 (inclusive) at screening. • 3. Meets the trial criteria for PPD as assessed by a trial psychiatrist or registered psychologist: • a. Diagnosis of Major Depressive Disorder without psychotic features, confirmed by the Mini-International Neuropsychiatric Interview (MINI), with peri-partum onset that began no earlier than gestation and no later than the first 4 weeks postpartum. • b. Has a Montgomery-Åsberg Depression Rating Scale (MADRS) total score of equal to or greater than 28 at screening and pre-dose on Day 0. • 6. […] Patients must have a negative pregnancy test at screening and on the pre-test day (Day −1). • 5. Is willing to delay start of other antidepressant or anxiety medication until after the end of the trial at Day 7 and agrees to keep any psychotherapy unchanged during the trial.
A potential patient who meets any of the following key exclusion criteria will be excluded from participation in this trial: • 1. Has, based on history, psychiatric assessment, and evaluation of the MINI, a current or prior diagnosis of bipolar disorder, a manic or hypomanic episode, a psychotic disorder, Major Depressive Disorder (MDD) or other mood disorder with psychotic features, obsessive compulsive disorder, post-traumatic stress disorder (PTSD), autism spectrum disorder, borderline personality disorder, schizophrenia, delusional disorder, paranoid personality disorder, schizoaffective disorder, clinically significant intellectual disability, or any other psychiatric comorbidity that renders the patient unsuitable for the trial according to the investigator's judgment. • 2. Has one or more first or second degree relatives with a current or previously diagnosed bipolar disorder, psychotic disorder or other mood disorder (including MDD) with psychotic features. • 3. Is in the judgement of a trial psychiatrist or registered psychologist, at significant risk for suicide based on history, psychiatric assessment, and evaluation of suicidal ideation and suicidal behaviour based on the Columbia-Suicide Severity Rating Scale (C-SSRS). • 4. Has taken anti-depressive medication within 14 days or 5 half-lives (whichever is longer) prior to dosing (exception: within the last 5 weeks in the case of fluoxetine). • 5.

[1] = PPD n=1, IDR 6+12 mg inhaled, 2 hr, baseline 0
[2] = PPD n=1, IDR 6+12 mg inhaled, 2 hr, baseline 3
[3] = PPD n=1, IDR 6+12 mg inhaled, 2 hr, baseline 4
[4] = PPD n=1, IDR 6+12 mg inhaled, 2 hr, baseline 5
[5] = PPD n=1, IDR 6+12 mg inhaled, Day 7, Day 0 score 5
[6] = PPD n=1, IDR 6+12 mg inhaled, Day 7, Day 0 score 6
[7] = PPD n=1, IDR 6+12 mg inhaled, Day 7 vs Day 0
[8] = PPD n=1, IDR 6+12 mg inhaled, day 1, baseline 0
[9] = PPD n=1, IDR 6+12 mg inhaled, day 1, baseline 1
[10] = PPD n=1, IDR 6+12 mg inhaled, day 1, baseline 2
[11] = PPD n=1, IDR 6+12 mg inhaled, day 1, baseline 3
[12] = PPD n=1, IDR 6+12 mg inhaled, day 1, baseline 4
[13] = PPD n=1, IDR 6+12 mg inhaled, day 1, baseline 5

What does the source list for `COc1ccc2[nH]cc(CCN(C)C)c2c1` [5-MeO-DMT]?
tolerability of the inhalation procedure (PPD n=1): well tolerated with no inhalation-related adverse events; MADRS remission criteria (MADRS total score equal or less than 10) (PPD n=1, IDR 6+12 mg inhaled): fulfilled; MADRS response criteria (at least 50% improvement from baseline) (PPD n=1, IDR 6+12 mg inhaled): fulfilled; reported adverse events (cramping left abdominal pain and headache, Day 0) (PPD n=1, IDR 6+12 mg inhaled): mild, short-lasting and resolved spontaneously; time to clinical response after administration (PPD n=1, IDR 6+12 mg inhaled): ≤ 2 h; durability of clinical response (PPD n=1, IDR 6+12 mg inhaled given on one day): sustained over the 7-day follow-up period; MADRS Concentration Difficulties improvement [1]: 0; MADRS Concentration Difficulties score [1]: 0; MADRS Reduced appetite improvement [1]: 0; MADRS Reduced appetite score [1]: 0; MADRS Suicidal Thoughts improvement [1]: 0; MADRS Suicidal Thoughts score [1]: 0; MADRS Inability to Feel improvement [2]: 3; MADRS Inability to Feel score [2]: 0; MADRS Lassitude improvement [2]: 3; MADRS Lassitude score [2]: 0; MADRS Pessimistic Thoughts improvement [3]: 4; MADRS Pessimistic Thoughts score [3]: 0; MADRS Reported sadness improvement [3]: 4; MADRS Reported sadness score [3]: 0; MADRS Apparent sadness improvement [4]: 5; MADRS Apparent sadness score [4]: 0; MADRS Inner Tension improvement [4]: 5; MADRS Inner Tension score [4]: 0; MADRS Reduced Sleep improvement [4]: 0; MADRS Reduced Sleep score [4]: 5; BIMF item 18 score: Anxiety or worry often interferes with my mothering ability (PPD n=1, IDR 6+12 mg inhaled, Day 7, Day 0 score 2): 5; BIMF item 16 score: I worry about how other people judge me (as a mother) (PPD n=1, IDR 6+12 mg inhaled, Day 7, Day 0 score 3): 5; BIMF item 13 score: I am taking good care of my physical needs (eating, showering, etc) (PPD n=1, IDR 6+12 mg inhaled, Day 7, Day 0 score 4): 5; BIMF item 10 score: I trust my own feelings (instincts) when it comes to taking care of my baby [5]: 6; BIMF item 17 score: I am able to take care of my baby and my other responsibilities [5]: 5; BIMF item 3 score: I am comfortable with the way I've chosen to feed my baby (either bottle or breast, or both) [6]: 6; BIMF item 6 score: There are people in my life that I can trust to care for my baby when I need a break [6]: 6; BIMF item 12 score: I am taking good care of my baby's physical needs (feedings, changing diapers, doctor's appointments) [6]: 6; BIMF item 14 score: I make good decisions about my baby's health and well being [6]: 6; BIMF functional domain Adjustment Δ (Day 7) [7]: 1; BIMF functional domain Infant Care Δ (Day 7) [7]: 0; BIMF functional domain Management Δ (Day 7) [7]: 5; BIMF functional domain Mother-Child Interaction Δ (Day 7) [7]: 2; BIMF functional domain Psychological Well-being Δ (Day 7) [7]: 9; BIMF functional domain Self Care Δ (Day 7) [7]: 4; BIMF functional domain Social Support Δ (Day 7) [7]: 1; BIMF item 1 Δ (Day 7): I am a good mother [7]: 0; BIMF item 2 Δ (Day 7): I feel rested [7]: 2; BIMF item 3 Δ (Day 7): I am comfortable with the way I've chosen to feed my baby (either bottle or breast, or both) [7]: 0; BIMF item 4 Δ (Day 7): My baby and I understand each other [7]: 0; BIMF item 5 Δ (Day 7): I am able to relax and enjoy time with my baby [7]: 1; BIMF item 6 Δ (Day 7): There are people in my life that I can trust to care for my baby when I need a break [7]: 0; BIMF item 8 Δ (Day 7): I am getting enough adult interaction [7]: 0; BIMF item 9 Δ (Day 7): I am getting enough encouragement from other people [7]: 1; BIMF item 10 Δ (Day 7): I trust my own feelings (instincts) when it comes to taking care of my baby [7]: 1; BIMF item 11 Δ (Day 7): I take a little time each week to do something for myself [7]: 1; BIMF item 12 Δ (Day 7): I am taking good care of my baby's physical needs (feedings, changing diapers, doctor's appointments) [7]: 0; BIMF item 13 Δ (Day 7): I am taking good care of my physical needs (eating, showering, etc) [7]: 1; BIMF item 14 Δ (Day 7): I make good decisions about my baby's health and well being [7]: 0; BIMF item 15 Δ (Day 7): My baby and I are getting into a routine [7]: 1; BIMF item 16 Δ (Day 7): I worry about how other people judge me (as a mother) [7]: 2; BIMF item 17 Δ (Day 7): I am able to take care of my baby and my other responsibilities [7]: 0; BIMF item 18 Δ (Day 7): Anxiety or worry often interferes with my mothering ability [7]: 3; BIMF item 19 Δ (Day 7): As time goes on, I am getting better at taking care of my baby [7]: 1; BIMF item 20 Δ (Day 7): I am satisfied with the job I am doing as a new mother [7]: −1; MADRS Concentration Difficulties improvement [8]: 0; MADRS Concentration Difficulties score [8]: 0; MADRS Reduced appetite improvement [8]: 0; MADRS Reduced appetite score [8]: 0; MADRS Suicidal Thoughts improvement [8]: 0; MADRS Suicidal Thoughts score [8]: 0; BPRS Blunted Affect score [9]: 1; BPRS Blunted affect improvement [9]: 0; BPRS Conceptual disorganization improvement [9]: 0; BPRS Conceptual disorganization score [9]: 1; BPRS Disorientation improvement [9]: 0; BPRS Disorientation score [9]: 1; BPRS Grandiosity improvement [9]: 0; BPRS Grandiosity score [9]: 1; BPRS Hallucinatory behaviour improvement [9]: 0; BPRS Hallucinatory behaviour score [9]: 1; BPRS Hostility improvement [9]: 0; BPRS Hostility score [9]: 1; BPRS Mannerisms and Posturing improvement [9]: 0; BPRS Mannerisms and Posturing score [9]: 1; BPRS Motor retardation improvement [9]: 0; BPRS Motor retardation score [9]: 1; BPRS Suspiciousness improvement [9]: 0; BPRS Suspiciousness score [9]: 1; BPRS Uncooperativeness improvement [9]: 0; BPRS Uncooperativeness score [9]: 1; BPRS Unusual Thought Content improvement [9]: 0; BPRS Unusual Thought Content score [9]: 1; BPRS Excitement improvement [10]: 1; BPRS Excitement score [10]: 1; MADRS Inability to Feel improvement [11]: 3; MADRS Inability to Feel score [11]: 0; MADRS Lassitude improvement [11]: 3; MADRS Pessimistic Thoughts improvement [12]: 4; MADRS Pessimistic Thoughts score [12]: 0; MADRS Reported sadness improvement [12]: 4; MADRS Reported sadness score [12]: 0; BPRS Emotional Withdrawal score [13]: 1; BPRS Emotional withdrawal improvement [13]: 4; MADRS Apparent sadness improvement [13]: 5; MADRS Apparent sadness score [13]: 0; MADRS Inner Tension improvement [13]: 5; MADRS Inner Tension score [13]: 0
